Source: article PMC11775389, “Catalytic mechanism underlying the regiospecificity of coumarin-substrate transmembrane prenyltransferases in Apiaceae” (Plant and Cell Physiology, 2024)
Like-named read-outs stand apart in the source and are kept apart here. Values belong to the molecule of their own block, whether it stands above or below them.

What was measured:
[1] = test system: AgPT1; conditions: read-out: apparent Km, divalent cation
[2] = molecular target: T1, PsPT1 (Pastinaca sativa, UniProt A0A0U1ZEE9); experiment: UHPLC of prenylated product, microsomes; type: biochemical; conditions: C6 product (demethylsuberosin); DMAPP co-substrate, Mg2+, 28 °C; read-out: Demethylsuberosin / (C6-position product) / Umbelliferone
T1 construct: gene PT1; full CDS (with transit peptide) in pGWB502; transient expression in Nicotiana benthamiana leaves, microsomes
From the text: (§1) UHPLC of prenylated product, microsomes on PsPT1

[3] = test system: CC(C)=CCOP(=O)(O)OP(=O)(O)O; experiment: UHPLC of prenylated product, microsomes; type: biochemical, Pastinaca sativa; conditions: C6 product (demethylsuberosin), umbelliferone co-substrate, Mg2+, 28 °C
From the text: as §1

[4] = test system: O=c1ccc2ccc(O)cc2o1; experiment: UHPLC of prenylated product, microsomes; type: biochemical, Pastinaca sativa; conditions: D2P8 (T/A), C6 product (demethylsuberosin), DMAPP co-substrate, Mg2+, 28 °C
From the text: as §1

Km ([1]; umbelliferone co-substrate): 10 ± 3 µM
Molecule: CC(C)=CCOP(=O)(O)OP(=O)(O)O [DMAPP]

Km [2]: 2.7 ± 0.6 µM | Km ([1]; DMAPP co-substrate): 40 ± 20 µM
Molecule: O=c1ccc2ccc(O)cc2o1 [umbelliferone]

Molecule: PsPT1 (Pastinaca sativa)
Km [3]: 5 ± 1 µM

Molecule: PsPT1 (Pastinaca sativa; T161A)
Km ([3]; D2P8 (T/A)): 4.4 ± 0.8 µM | Km [4]: 47 ± 7 µM
